Like-named read-outs stand apart in the source and are kept apart here.
Experiments:
Type in all cases: in vivo
[1] = system: barnyardgrass (Echinochloa crus-galli, ECHCG); assay: Post-emerge test, greenhouse herbicide activity screening; conditions: for pest or weed control at 63 g/ha / pest or weed control at 250 g/ha: Echinochloa crus-galli, post-emergence, 336 h, read-out: Post-emerge Herbicidal Activity ECHCG; for phytotoxicity rating ECHCG: rating scale 0-100
Procedure, shortened: (§1)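 Fourteen days after spraying, crop and weed injury was graded visually from 0, no effect, to 100, every plant dead. Test substances were dissolved in acetone and applied at 15–1000 g ai/ha with a flat-fan nozzle. Application was either pre-emergence, one day after sowing, or post-emergence at the 2–3 leaf stage.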

[2] = system: velvetleaf (Abutilon theophrasti, ABUTH); assay: as above; conditions: for pest or weed control at 63 g/ha / pest or weed control at 250 g/ha: Abutilon theophrasti, post-emergence, 336 h, read-out: Post-emerge Herbicidal Activity ABUTH; for phytotoxicity rating ABUTH: rating scale 0-100
Procedure, shortened: as §1

[3] = system: common ragweed (Ambrosia artemisizfolia L., AMBEL); assay: as above; conditions: for phytotoxicity rating AMBEL: rating scale 0-100
Procedure, shortened: as §1

[4] = system: ivyleaf morningglory (Ipomoea hederacea, IPOHE); assay: as above; conditions: for pest or weed control at 63 g/ha / pest or weed control at 250 g/ha: Ipomoea, post-emergence, 336 h, read-out: Post-emerge Herbicidal Activity IPOHE; for phytotoxicity rating IPOHE: rating scale 0-100
Procedure, shortened: as §1

[5] = system: redroot pigweed (Amaranthus retroflexus, AMARE); assay: as above; conditions: for pest or weed control at 63 g/ha / pest or weed control at 250 g/ha: Amaranthus retroflexus, post-emergence, 336 h, read-out: Post-emerge Herbicidal Activity AMARE
Procedure, shortened: as §1

[6] = system: common ragweed (Ambrosia artemisizfolia L., AMBEL); assay: Pre-emerge test, greenhouse herbicide activity screening; conditions: for Pre-emerge Herbicidal Activity AMBEL (phytotoxicity rating, scale 0-100): rated 14 days after application, 0 = no damage, 100 = complete death
Procedure, shortened: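 Compounds in acetone were track-sprayed at 15–1000 g ai/ha: pre-emergence onto soil sown the previous day, then top-watered to incorporate and later bottom-watered; post-emergence onto 2–3 leaf plants with 0.25% v/v surfactant, bottom-watered only. Ratings on a 0–100 phytotoxicity scale were taken at day 14.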

[7] = system: soybean (Glycine max L., var. Pella 86, SOY); assay: Post-emerge test, crop safety; conditions: 14 days after application, rating scale 0-100
Procedure, shortened: (§2)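 Rating: 0–100 visual injury, 14 DAA. Application: acetone, 187 l/ha, 15–1000 g ai/ha, flat-fan track sprayer with nozzle 40–45 cm above soil or canopy. Post-emerge runs used 0.25% v/v surfactant on 2–3 leaf plants.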

[8] = system: field corn (Zea mays L., var. Dekalb 535, CORN); assay: Post-emerge test, crop safety; conditions: post-emerge, 14 days after application, rating scale 0-100
Procedure, shortened: as §2

[9] = system: upland rice (Oryza sp., var. Tebonnet, RICE); assay: Post-emerge test, crop safety; conditions: post-emerge, 14 days after application, rating scale 0-100
Procedure, shortened: as §2

[10] = system: soybean (Glycine max L., var. Pella 86, SOY); assay: Pre-emerge test, crop safety; conditions: crop damage rating 0-100, 14 days after application
Procedure, shortened: (§3)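 Compounds in acetone were track-sprayed at 187 l/ha, 15–1000 g ai/ha, onto sandy loam pots. Pre-emerge seeds were sown one day before spraying, with surface watering afterwards. Post-emerge plants were at the 2–3 leaf stage and sprayed with 0.25% v/v non-ionic surfactant. Injury was rated 0–100 at 14 days.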

[11] = system: field corn (Zea mays L., var. Dekalb 535, CORN); assay: Pre-emerge test, crop safety; conditions: crop damage rating 0-100, 14 days after application
Procedure, shortened: as §3

[12] = system: upland rice (Oryza sp., var. Tebonnet, RICE); assay: Pre-emerge test, crop safety; conditions: crop damage rating 0-100, 14 days after application
Procedure, shortened: as §3

[13] = 63 g ai/ha, phytotoxicity rating 0-100 (0 no damage, 100 complete death), 14 days after application
[14] = 250 g ai/ha, phytotoxicity rating 0-100 (0 no damage, 100 complete death), 14 days after application
[15] = post-emerge, 63 g ai/ha, 14 days after application
[16] = post-emerge, 250 g ai/ha, 14 days after application
[17] = post-emerge, 63 g ai/ha, 14 days after application, rating scale 0-100 (0 no damage, 100 complete death)
[18] = post-emerge, 250 g ai/ha, 14 days after application, rating scale 0-100
[19] = post-emerge, 63 g ai/ha, phytotoxicity rating 0-100 at 14 days after application
[20] = post-emerge, 250 g ai/ha, phytotoxicity rating 0-100 at 14 days after application

COc1c(Cl)cc(F)c(-n2c(=O)cc(C(F)(F)F)n(C)c2=O)c1N(C(C)=O)C(C)=O [Compound 2-2, 3-(4-chloro-2-diacetylamino-6-fluoro-3-methoxyphenyl)-1-methyl-6-trifluoromethyl-2,4(1H, 3H)-pyrimidinedione]
pest or weed control at 63 g/ha [1, 13]: 0%
pest or weed control at 250 g/ha [1, 14]: 40%
pest or weed control at 63 g/ha [2, 13]: 95%
pest or weed control at 250 g/ha [2, 14]: 100%
Post-emerge Herbicidal Activity AMBEL [3, 13]: 0
Post-emerge Herbicidal Activity AMBEL [3, 14]: 70
pest or weed control at 63 g/ha [4, 13]: 95%
pest or weed control at 250 g/ha [4, 14]: 100%
pest or weed control at 63 g/ha [5, 13]: 90%
pest or weed control at 250 g/ha [5, 14]: 100%
Pre-emerge Herbicidal Activity AMBEL (phytotoxicity rating, scale 0-100) ([6]; 63 g ai/ha, pre-emerge): 40
Pre-emerge Herbicidal Activity AMBEL (phytotoxicity rating, scale 0-100) ([6]; 250 g ai/ha, pre-emerge): 100

Cn1c(C(F)(F)F)cc(=O)n(-c2c(F)cc(Cl)c(O)c2N)c1=O [Compound 1-16, 3-(2-amino-4-chloro-6-fluoro-3-hydroxyphenyl)-1-methyl-6-trifluoromethyl-2,4(1H, 3H)-pyrimidinedione]
pest or weed control at 63 g/ha [1, 13]: 0%
pest or weed control at 250 g/ha [1, 14]: 0%
pest or weed control at 63 g/ha [2, 13]: 30%
pest or weed control at 250 g/ha [2, 14]: 50%
Post-emerge Herbicidal Activity AMBEL [3, 13]: 0
Post-emerge Herbicidal Activity AMBEL [3, 14]: 0
pest or weed control at 63 g/ha [4, 13]: 20%
pest or weed control at 250 g/ha [4, 14]: 50%
pest or weed control at 63 g/ha [5, 13]: 30%
pest or weed control at 250 g/ha [5, 14]: 70%
Pre-emerge Herbicidal Activity AMBEL (phytotoxicity rating, scale 0-100) ([6]; 63 g ai/ha, pre-emerge): 0
Pre-emerge Herbicidal Activity AMBEL (phytotoxicity rating, scale 0-100) ([6]; 250 g ai/ha, pre-emerge): 0

COC(=O)Nc1c(OC)c(Cl)cc(F)c1-n1c(=O)cc(C(F)(F)F)n(C)c1=O [Compound 4-1, 3-(4chloro-6-fluoro-3-methoxy-2-methoxycarbonylaminophenyl)-1-methyl-6-trifluoromethyl-2,4(1H, 3H)-pyrimidinedione]
phytotoxicity rating SOY (crop damage) ([7]; 63 g ai/ha): 50
phytotoxicity rating SOY (crop damage) ([7]; 250 g ai/ha): 100
phytotoxicity rating CORN (crop damage) ([8]; 63 g ai/ha): 10
phytotoxicity rating CORN (crop damage) ([8]; 250 g ai/ha): 20
phytotoxicity rating RICE (crop damage) ([9]; 63 g ai/ha): 20
phytotoxicity rating RICE (crop damage) ([9]; 250 g ai/ha): 50
phytotoxicity rating ECHCG [1, 15]: 0
phytotoxicity rating ECHCG [1, 16]: 0
phytotoxicity rating ABUTH [2, 15]: 100
phytotoxicity rating ABUTH [2, 16]: 100
phytotoxicity rating AMBEL [3, 15]: 40
phytotoxicity rating AMBEL [3, 16]: 90
phytotoxicity rating IPOHE [4, 15]: 100
phytotoxicity rating IPOHE [4, 16]: 100
phytotoxicity rating AMARE [5, 17]: 50
phytotoxicity rating AMARE [5, 18]: 95
Pre-emerge Herbicidal Activity SOY ([10]; 63 g ai/ha): 70
Pre-emerge Herbicidal Activity SOY ([10]; 250 g ai/ha): 100
Pre-emerge Herbicidal Activity CORN ([11]; 63 g ai/ha): 10
Pre-emerge Herbicidal Activity CORN ([11]; 250 g ai/ha): 80
Pre-emerge Herbicidal Activity RICE ([12]; 63 g ai/ha): 50
Pre-emerge Herbicidal Activity RICE ([12]; 250 g ai/ha): 95

CNC(=O)N(C(=O)NC)c1c(OC)c(Cl)cc(F)c1-n1c(=O)cc(C(F)(F)F)n(C)c1=O [Compound 3-1, 3-[2-bis(methylaminocarbonyl)amino-4-chloro-6-fluoro-3-methoxyphenyl]-1-methyl-6-trifluoromethyl-2,4(1H, 3H)-pyrimidinedione]
phytotoxicity rating ECHCG [1, 15]: 0
phytotoxicity rating ECHCG [1, 16]: 0
phytotoxicity rating ABUTH [2, 15]: 0
phytotoxicity rating ABUTH [2, 16]: 0
phytotoxicity rating AMBEL [3, 15]: 0
phytotoxicity rating AMBEL [3, 16]: 0
phytotoxicity rating IPOHE [4, 15]: 0
phytotoxicity rating IPOHE [4, 16]: 30
phytotoxicity rating AMARE [5, 17]: 0
phytotoxicity rating AMARE [5, 18]: 60
Pre-emerge Herbicidal Activity AMBEL ([6]; 63 g ai/ha, phytotoxicity rating 0-100, 14 days after application): 0
Pre-emerge Herbicidal Activity AMBEL ([6]; 250 g ai/ha, phytotoxicity rating 0-100, 14 days after application): 0

COc1c(Cl)cc(F)c(-n2c(=O)cc(C(F)(F)F)n(C)c2=O)c1[N+](=O)[O-] [Compound 1-5, 3-(4-chloro-6-fluoro-3-methoxy-2-nitrophenyl)-1-methyl-6-trifluoromethyl-2,4(1H, 3H)-pyrimidinedione]
pest or weed control at 63 g/ha [1, 13]: 0%
pest or weed control at 250 g/ha [1, 14]: 0%
pest or weed control at 63 g/ha [2, 13]: 10%
pest or weed control at 250 g/ha [2, 14]: 60%
Post-emerge Herbicidal Activity AMBEL [3, 13]: 0
Post-emerge Herbicidal Activity AMBEL [3, 14]: 30
pest or weed control at 63 g/ha [4, 13]: 0%
pest or weed control at 250 g/ha [4, 14]: 70%
pest or weed control at 63 g/ha [5, 13]: 0%
pest or weed control at 250 g/ha [5, 14]: 40%
Pre-emerge Herbicidal Activity AMBEL (phytotoxicity rating, scale 0-100) ([6]; 63 g ai/ha, pre-emerge): 0
Pre-emerge Herbicidal Activity AMBEL (phytotoxicity rating, scale 0-100) ([6]; 250 g ai/ha, pre-emerge): 20

COc1c(Cl)cc(F)c(-c2nn(C)c(C(F)(F)F)c2Cl)c1N [Compound 7-2, 4-chloro-3-(2-amino-4-chloro-6-fluoro3-metoxyphenyl)-1-methyl-5-trifluoromethyl-1H-pyrazole]
pest or weed control at 63 g/ha [1, 19]: 30%
pest or weed control at 250 g/ha [1, 20]: 90%
pest or weed control at 63 g/ha [2, 19]: 100%
pest or weed control at 250 g/ha [2, 20]: 100%
Post-emerge Herbicidal Activity AMBEL [3, 19]: 0
Post-emerge Herbicidal Activity AMBEL [3, 20]: 10
pest or weed control at 63 g/ha [4, 19]: 80%
pest or weed control at 250 g/ha [4, 20]: 100%
pest or weed control at 63 g/ha [5, 19]: 100%
pest or weed control at 250 g/ha [5, 20]: 100%
Pre-emerge Herbicidal Activity AMBEL ([6]; pre-emerge, rate 63 g ai/ha, phytotoxicity rating 0-100 at 14 days after application): 80
Pre-emerge Herbicidal Activity AMBEL ([6]; pre-emerge, rate 250 g ai/ha, phytotoxicity rating 0-100 at 14 days after application): 100

From US6355799B1, “Substituted benzene compounds, process for their preparation, and herbicidal and defoliant compositions containing them” (ISK Americas Incorporated, priority 1997, dated 2002)
